Reference: EP1208096B1, “SUBSTITUTED PYRIDAZINES AND FUSED PYRIDAZINES WITH ANGIOGENESIS INHIBITING ACTIVITY” (Bayer Corporation, priority 1999, dated 2001)
Structures can show the parent of a compound that is named as a salt.

Columns and labels:
[1] = target: T1, cytosolic kinase domain of KDR kinase (Homo sapiens, UniProt P35968); test: KDR Assay (ELISA, phosphorylation of poly(Glu4;Tyr1)); type: biochemical; conditions: 3.3 µM ATP, 60 minutes at room temperature, 30 ng KDR kinase domain
T1 construct: The cytosolic kinase domain of KDR kinase was expressed as a 6His fusion protein in Sf9 insect cells; 6His; made in house; host or cells: Sf9 insect cells
Protocol: The cytosolic kinase domain of KDR kinase was expressed as a 6His fusion protein in Sf9 insect cells. The KDR kinase domain fusion protein was purified over a Ni^++ chelating column. Ninety-six well ELISA plates were coated with 5 µg poly(Glu4;Tyr1) (Sigma Chemical Co., St Louis, MO) in 100 µl HEPES buffer (20 mM HEPES, pH 7.5, 150 mM NaCl, 0.02% Thimerosal) at 4° overnight. Before use, the plate was washed with HEPES, NaCl buffer and the plates were blocked with 1% BSA, 0.1% Tween 20 in HEPES, NaCl buffer.
Test compounds were serially diluted in 100% DMSO from 4 mM to 0.12 µM in half-log dilutions. These dilutions were further diluted twenty fold in H2O to obtain compound solutions in 5% DMSO. Following loading of the assay plate with 85 µl of assay buffer (20 mM HEPES, pH 7.5, 100 mM KCl, 10 mM MgCl2, 3 mM MnCl2, 0.05% glycerol, 0.005% Triton X-100, 1 mM -mercaptoethanol, with or without 3.3 µM ATP), 5 µl of the diluted compounds were added to a final assay volume of 100 µl. Final concentrations were between 10 µM, and 0.3 nM in 0.25% DMSO. The assay was initiated by the addition of 10µl (30 ng) of KDR kinase domain.
The assay was incubated with test compound or vehicle alone with gentle agitation at room temperature for 60 minutes. The wells were washed and phosphotyrosines (PY) were probed with an anti-phosphotyrosine (PY), mAb clone 4G10 (Upstate Biotechnology, Lake Placid, NY). PY/anti-PY complexes were detected with an anti-mouse IgG/HRP conjugate (Amersham International plc, Buckinghamshire, England). Phosphotyrosine was quantitated by incubating with 100 µl 3, 3', 5, 5' tetramethylbenzidine solution (Kirkegaard and Perry, TMB Microwell 1 Component peroxidase substrate). Color development was arrested by the addition of 100 µl 1% HCl-based stop solution (Kirkegaard and Perry, TMB I Component Stop Solution).
Optical densities were determined spectrophotometrically at 450 nm in a 96-well plate reader, SpectraMax 250 (Molecular Devices). Background (no ATP in assay) OD values were subtracted from all ODs and the percent inhibition was calculated according to the equation: % Inhibition =((OD(vehicle control) - OD(with compound)) X 100)/(OD(vehicle control) - OD(no ATP added)) [formula]
The IC50 values were determined with a least squares analysis program using compound concentration versus percent inhibition. Compounds that have IC50 < 100 nM in this assay include those of Examples 1, 2, 4, 5, 6, 7, 10, 11, 12, 13, 14, 15, 16 and 23. Compounds that have IC50 values between 100 nM and 1,000 nM include those of examples 8, 9 and 22. Those that have measured IC50 values > 1,000 nM include those of examples 3, 17, 18 and 21.

[2] = target: T2, NIH3T3 cells expressing the full length KDR receptor (Homo sapiens, UniProt P35968); test: Cell mechanistic assay - Inhibition of 3T3 KDR phosphorylation; type: cell-based; conditions: VEGF (30 ng / ml) for 10 minutes after 30 minutes with compound; KDR phosphotyrosine ELISA
T2 construct: NIH3T3 cells expressing the full length KDR receptor; expressed in transfected cells; host or cells: NIH3T3 cells (G418 selection)
Protocol: NIH3T3 cells expressing the full length KDR receptor were grown in DMEM (Life Technologies, Inc., Grand Island, NY) supplemented with 10% newborn calf serum, low glucose, 25 mM /L sodium pyruvate, pyridoxine hydrochloride and 0.2 mg/ ml of G418 (Life Technologies Inc., Grand Island, NY). The cells were maintained in collagen I-coated T75 flasks (Becton Dickinson Labware, Bedford, MA) in a humidified 5% CO2 atmosphere at 37°C.
Fifteen thousand cells were plated into each well of a collagen I-coated 96-well plate in the DMEM growth medium. Six hours later, the cells were washed and the medium was replaced with DMEM without serum. After overnight culture to quiesce the cells, the medium was replaced by Dulbecco's phosphate-buffered saline (Life Technologies Inc., Grand Island, NY) with 0.1% bovine albumin (Sigma Chemical Co., St Louis, MO). After adding various concentrations (0-300 nM) of test compounds to the cells in 1% final concentration of DMSO, the cells were incubated at room temperature for 30 minutes. The cells were then treated with VEGF (30 ng / ml) for 10 minutes at room temperature. Following VEGF stimulation, the buffer was removed and the cells were lysed by addition of 150 µl of extraction buffer (50 mM Tris, pH 7.8, supplemented with 10% glycerol, 50 mM BGP, 2 mM EDTA, 10 mM NaF, 0.5 mM NaVO4, and 0.3% TX-100) at 4°C for 30 minutes.
To assess receptor phosphorylation, 100 microliters of each cell lysate was added to the wells of an ELISA plate precoated with 300 ng of antibody C20 (Santa Cruz Biotechnology, Inc., Santa Cruz , CA). Following a 60-minute incubation, the plate was washed and bound KDR was probed for phosphotyrosine using an anti-phosphotyrosine mAb clone 4G10 (Upstate Biotechnology, Lake Placid, NY). The plate was washed and wells were incubated with anti-mouse IgG/HRP conjugate (Amersham International plc, Buckinghamshire, England) for 60 minutes. Wells were washed and phosphotyrosine was quantitated by addtion of 100 µl per well of 3,3',5,5' tetramethylbenzidine (Kirkegaard and Perry, TMB Microwell 1 Component peroxidase substrate) solution. Color development was arrested by the addition of 100 µl 1% HCl based stop solution (Kirkegaard and Perry, TMB 1 Component Stop Solution).
Optical densities (OD) were determined spectrophotometrically at 450 nm in a 96-well plate reader (SpectraMax 250, Molecular Devices). Background (no VEGF added) OD values were subtracted from all ODs and percent inhibition was calculated according to the equation: % Inhibition =((OD(VEGF control) - OD(with test compound)) X 100)/(OD(VEGF control) - OD(no VEGF added)) [formula]
IC50s were determined with a least squares analysis program using compound concentration versus percent inhibition. Compounds that have IC50 < 20 nM in this assay include those of Examples 2, 6, 7, 11, 15 and 16. Compounds that have IC50 values between 20 nM and 50 nM include those of examples 1, 4, 5, 8, 10, 12, 13 and 14. Those that have measured IC50 values > 50 nM include those of examples 9 and 21.

T1 sequence (P35968 834-1162 limits assumed): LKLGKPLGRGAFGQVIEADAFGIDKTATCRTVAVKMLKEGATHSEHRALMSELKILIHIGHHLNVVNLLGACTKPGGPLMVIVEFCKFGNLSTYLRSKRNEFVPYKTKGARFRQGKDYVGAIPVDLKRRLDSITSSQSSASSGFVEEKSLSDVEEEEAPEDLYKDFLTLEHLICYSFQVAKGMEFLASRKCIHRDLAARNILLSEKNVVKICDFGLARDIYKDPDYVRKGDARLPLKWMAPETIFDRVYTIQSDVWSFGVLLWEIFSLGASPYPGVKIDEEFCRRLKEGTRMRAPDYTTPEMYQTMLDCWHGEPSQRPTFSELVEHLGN
T2 sequence (P35968 20-1356): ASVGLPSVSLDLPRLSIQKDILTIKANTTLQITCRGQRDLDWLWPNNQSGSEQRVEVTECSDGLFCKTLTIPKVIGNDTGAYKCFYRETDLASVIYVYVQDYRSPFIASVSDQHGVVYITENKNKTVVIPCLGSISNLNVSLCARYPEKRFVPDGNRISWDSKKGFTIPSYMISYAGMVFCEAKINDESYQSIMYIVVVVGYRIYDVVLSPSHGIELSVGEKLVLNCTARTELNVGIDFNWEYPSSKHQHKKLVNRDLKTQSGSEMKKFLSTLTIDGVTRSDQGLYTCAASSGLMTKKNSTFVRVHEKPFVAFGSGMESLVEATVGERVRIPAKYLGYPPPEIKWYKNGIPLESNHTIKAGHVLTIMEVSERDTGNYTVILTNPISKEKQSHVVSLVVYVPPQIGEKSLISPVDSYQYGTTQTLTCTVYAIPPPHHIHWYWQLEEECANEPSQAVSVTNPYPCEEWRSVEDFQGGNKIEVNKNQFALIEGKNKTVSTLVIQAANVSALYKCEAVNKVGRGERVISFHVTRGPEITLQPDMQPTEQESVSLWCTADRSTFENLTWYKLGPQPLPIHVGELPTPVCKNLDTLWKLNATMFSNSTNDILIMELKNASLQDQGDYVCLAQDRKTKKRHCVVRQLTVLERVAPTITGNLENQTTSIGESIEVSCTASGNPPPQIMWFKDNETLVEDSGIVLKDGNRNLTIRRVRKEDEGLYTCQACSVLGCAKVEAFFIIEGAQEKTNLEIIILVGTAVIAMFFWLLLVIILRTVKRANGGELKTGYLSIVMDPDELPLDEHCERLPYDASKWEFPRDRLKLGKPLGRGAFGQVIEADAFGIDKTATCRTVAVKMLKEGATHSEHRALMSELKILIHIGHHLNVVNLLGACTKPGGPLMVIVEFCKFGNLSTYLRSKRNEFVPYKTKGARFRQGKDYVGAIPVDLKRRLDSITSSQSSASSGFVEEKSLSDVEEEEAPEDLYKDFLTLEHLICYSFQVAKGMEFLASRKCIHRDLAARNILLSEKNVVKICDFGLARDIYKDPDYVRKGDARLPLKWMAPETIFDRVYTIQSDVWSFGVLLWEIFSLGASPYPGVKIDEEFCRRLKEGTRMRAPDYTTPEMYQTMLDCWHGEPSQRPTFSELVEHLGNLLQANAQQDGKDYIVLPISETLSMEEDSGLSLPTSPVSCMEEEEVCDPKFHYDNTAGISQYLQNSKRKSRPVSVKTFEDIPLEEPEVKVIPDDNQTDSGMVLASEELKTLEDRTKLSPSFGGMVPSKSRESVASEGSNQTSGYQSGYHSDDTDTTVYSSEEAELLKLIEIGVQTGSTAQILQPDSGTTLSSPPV

| Structure (SMILES) | IC50 [1] [nM] | IC50 [2] [nM] |
| --- | --- | --- |
| Clc1ccc(Nc2nnc(OCc3cccnc3)c3ccccc23)cc1 [Example 3, 1-(4-chlorophenylamino)-4-(3-pyridylmethoxy)phthalazine] | > 1000 |  |
| NC(=O)c1cc(COc2nnc(Nc3ccc(Cl)cc3)c3ccccc23)ccn1 [Example 5, 4-[4-(4-Chlorophenylamino)phthalazin-1-yloxymethyl]pyridin-2-yl carboxylic acid amide] |  | 20 to 50 |
| c1ccc2c(Nc3ccc(Oc4ccncc4)cc3)nnc(Cc3ccncc3)c2c1 [Example 9, 1-[4-(4-pyridyloxy)phenylamino]-4-(4-pyridylmethyl)phthalazine] | 100 to 1000 | > 50 |
| CNC(=O)c1cc(Cc2nnc(Nc3ccc(Cl)cc3)c3ccccc23)ccn1 [Example 11, 4-[4-(4-Chlorophenylamino)phthalazin-1-ylmethyl]pyridin-2-yl carboxylic acid methylamide dihydrochloride] |  | < 20 |
| CNC(=O)c1cc(Cc2nnc(Nc3ccc(Cl)cc3)c3ccccc23)ccn1 [Example 12, 4-[4-(4-Chlorophenylamino)phthalazin-1-ylmethyl]pyridin-2-yl carboxylic acid methylamide dimethanesulfonate] |  | 20 to 50 |
| NC(=O)c1cc(Cc2nnc(Nc3ccc(Cl)cc3)c3ccccc23)ccn1 [Example 14, 4-[4-(4-Chlorophenylamino)phthalazin-1-ylmethyl]pyridin-2-yl carboxylic acid amide dimethanesulfonate] |  | 20 to 50 |
| NC(=O)c1cc(COc2nnc(Nc3ccc(Cl)cc3)c3ccccc23)ccn1 [Example 16, 4-[4-(4-Chlorophenylamino)phthalazin-1-yloxymethyl]pyridin-2-yl carboxylic acid amide dimethanesulfonate] |  | < 20 |
| Clc1ccc(Nc2nnc(Sc3nnc(-c4ccncc4)[nH]3)c3ccccc23)cc1 [Example 17, 1-(4-chlorophenylamino)-4-[5-(4-pyridyl)-1H-1,2,4-triazolyl-3-ylthio]phthalazine] | > 1000 |  |
| CC(C)c1ccc(Nc2nnc(Sc3nnc(-c4ccncc4)[nH]3)c3ccccc23)cc1 [Example 18, 1-(4-isopropylphenylamino)-4-[5-(4-pyridyl)-1H-1,2,4-triazolyl-3-ylthio]phthalazine] | > 1000 |  |
| N#CC(c1ccncc1)c1nnc(Nc2ccc3c(c2)CCC3)c2ccccc12 (centres unmarked) [Example 22, 1-(indan-5-ylamino)-4-(4-pyridylcyanomethyl)phthalazine] | 100 to 1000 |  |

Continued, values first:

| IC50 [1] [nM] | IC50 [2] [nM] | Structure (SMILES) |
| --- | --- | --- |
| < 100 | 20 to 50 | CNC(=O)c1cc(COc2nnc(Nc3ccc(Cl)cc3)c3ccccc23)ccn1 [Example 4, 4-[4-(4-Chlorophenylamino)phthalazin-1-yloxymethyl]pyridin-2-yl carboxylic acid methylamide] |
| < 100 | < 20 | CNC(=O)c1cc(Cc2nnc(Nc3cccc(Br)c3)c3ccccc23)ccn1 [Example 6, 4-[4-(3-Bromophenylamino)phthalazin-1-ylmethyl]-pyridin-2-yl carboxylic acid methylamide] |
| < 100 | < 20 | NC(=O)c1cc(Cc2nnc(Nc3cccc(Br)c3)c3ccccc23)ccn1 [Example 7, 4-[4-(3-Bromophenylamino)phthalazin-1-ylmethyl]-pyridin-2-yl carboxylic acid amide] |
| 100 to 1000 | 20 to 50 | Clc1ccc(Nc2nnc(Cc3ccnc(-c4ccccc4)c3)c3ccccc23)cc1 [Example 8, 1-(4-chlorophenylamino)-4-[(2-phenyl-4-pyridyl)methyl]phthalazine] |
| < 100 | 20 to 50 | c1ccc2c(Nc3ccc4c(c3)CCC4)nnc(Cc3ccncc3)c2c1 [Example 10, 1-(indan-5-ylamino)-4-(4-pyridylmethyl)phthalazine] |
| < 100 | 20 to 50 | NC(=O)c1cc(Cc2nnc(Nc3ccc(Cl)cc3)c3ccccc23)ccn1 [Example 13, 4-[4-(4-Chlorophenylamino)phthalazin-1-ylmethyl]pyridin2-yl carboxylic acid amide dihydrochloride] |
| < 100 | < 20 | NC(=O)c1cc(COc2nnc(Nc3ccc(Cl)cc3)c3ccccc23)ccn1 [Example 15, 4-[4-(4-Chlorophenylamino)phthalazin-1-yloxymethyl]pyridin-2-yl carboxylic acid amide dihydrochloride] |
| < 100 |  | c1ccc2c(Nc3ccc4ncsc4c3)nnc(Cc3ccncc3)c2c1 [Example 23, 1-(benzothiazol-6-ylamino)-4-(4-pyridylmethyl)phthalazine] |
